The values that follow come from article PMC8125528 (Molecules, 2021).

Where two headings read alike, the source gives them in different places.

The subject of one data set is MCF-7 cells. The experiment in a line: MTT antiproliferative assay, MCF-7. Type of data set: cell-based. The following applies: for IC50: Homo sapiens, MCF7, breast MCF-7 cells, 72 h, MTT assay, 0.1-100 µM, read-out: Estimated IC50, MCF-7; for Selectivity index, MCF-7: ratio of IC50 in NHDF to IC50 in MCF-7. As for the experimental part:
(§1) Each experiment was performed in quadruplicate and independently repeated.

The subject of a further data set is T47-D cells. The experiment in a line: MTT antiproliferative assay, T47-D. Type of data set: cell-based. Conditions: for IC50: Homo sapiens, T47D, breast T47-D cells, 72 h, MTT assay, 0.1-100 µM, read-out: Estimated IC50, T47-D; for Selectivity index, T47-D: ratio of IC50 in NHDF to IC50 in T47-D. As for the experimental part:
as §1

The subject of the next data set is HepaRG cells. The experiment in a line: MTT antiproliferative assay, HepaRG. Conditions: for IC50: Homo sapiens, liver HepaRG cells, 72 h, MTT assay, 0.1-100 µM, read-out: Estimated IC50, HepaRG; for Selectivity index, HepaRG: ratio of IC50 in NHDF to IC50 in HepaRG. Type of data set: cell-based. As for the experimental part:
as §1

Data set [1] has as its system normal human dermal fibroblasts (NHDF). The experiment in a line: MTT antiproliferative assay, NHDF. In kind it is cell-based. Conditions: normal fibroblast NHDF cells, 72 h, 0.1-100 µM, read-out: Estimated IC50, NHDF. As for the experimental part:
as §1

In another data set the test system is 17β-HSD1. Conditions: at 10 μM; cited from earlier work.
Data set [2] has as its system estrogen-sensitive breast cancer T47-D cells (ER+). Set-up: method as in doi:10.5802/crchim.17. Conditions: previous study; cited from earlier work.
For a further data set, the system named is HepaRG cell cycle. Set-up: method as in doi:10.5802/crchim.17. Conditions: HepaRG cells; cited from earlier work.
Data set [3] concerns MCF-7, T47D, LNCaP, HepaRG, Caco-2 and NHDF cell lines. Briefly: MTT screening at 30 µM in six cell lines. Type of data set: cell-based. Conditions: 72 h. As for the experimental part: as §1
In another data set the test system is Caco-2 cells. The experiment in a line: cells. Conditions: Homo sapiens, Caco-2, 72 h, read-out: Estimated IC50, Caco-2. As for the experimental part: (§2) The antiproliferative effect of compounds was evaluated by the 3-(4,5-dimethylthiazol-2-yl)-2,5-diphenyltetrazolium bromide (MTT; Sigma-Aldrich, St Louis, MO, USA) assay in MCF-7, T47-D, LNCaP, HepaRG, Caco-2 and NHDF cells. After reaching near confluence, cells were trypsinized and counted with a hemocytometer by means of the trypan-blue exclusion of dead cells. Then, 100 µL of cell suspension (2 × 10^4 cells/mL) was seeded in 96-well culture plates and left to adhere and growth during 48 h. […] Afterward, MTT containing medium was removed and formazan crystals were dissolved in DMSO. Absorbance was measured at 570 nm using a microplate reader Bio-rad Xmark spectrophotometer. After background subtraction, cell proliferation values were expressed as percentage relatively to the absorbance determined in negative control cells. Untreated cells were used as the negative control and the clinical drug 5-fluorouracil (5-FU) was used as positive control. Each experiment was performed in quadruplicate and independently repeated.
(§3) Data were expressed as mean ± standard deviation (SD). t-Student test (two groups) and one-way ANOVA (three groups) were used followed by Bonferroni post hoc tests to determine statistically significant differences among the means.

A further data set relates to uterine growth. Set-up: method as in PMID 10447965. Conditions: ovariectomized rats; cited from earlier work.
Data set [4] deals with estrogen-sensitive breast cancer T47-D cells (ER+). The experiment in a line: E-screening (estrogenicity) assay in T47-D cells. Type of data set: cell-based. Conditions: 0.001 and 0.01 µM, vs. negative control, MTT readout. As for the experimental part: After overnight incubation, the medium was replaced every 3 days with fresh phenol red free RPMI 1640 medium supplemented with 5% of dextran-coated charcoal-treated fetal calf serum (DCC-FCS) and containing compound 11 (0.1, 0.01 and 0.001 µM). […] Each experiment was performed in quadruplicate and independently repeated.

Data set [5] has as its system LNCaP cells. The experiment in a line: MTT antiproliferative assay, LNCaP. Type of data set: cell-based. Conditions: for IC50: Homo sapiens, prostate LNCaP cells, MTT assay, 0.1-100 µM, read-out: Estimated IC50, LNCaP; for Selectivity index, LNCaP: ratio of IC50 in NHDF to IC50 in LNCaP. As for the experimental part:
as §1

A further data set is described as follows: in vitro. Conditions: human, Caco-2. As for the experimental part:
as §2, §3

For data set [6], the system named is LNCaP cells. Briefly: LNCaP cell viability by flow cytometry after propidium iodide staining. Conditions: 50 µM, 24 h, PI flow cytometry. In kind it is cell-based. As for the experimental part: The analysis of LNCaP cells viability was performed by flow cytometry after staining with propidium iodide (PI) (solution of PI 1 mg/mL in 0.1% of sodium azide and water; Sigma Aldrich, St Louis, MO, USA). Briefly, 3 mL of cells suspension were seeded in 6-well plates (5 × 10^4 cells/mL) in complete culture medium. After 48 h they were treated with 50 µM of compound 11. Untreated cells were used as negative control and 5-FU (50 µM) was used as positive control. Each experiment was performed in duplicate and independently repeated. At the end of 24 h of incubation, the supernatant of each well was collected, cells were harvested by trypsinization and pooled with the supernatants. The resulting cell suspension was kept on ice, pelleted by centrifugation and resuspended in 400 µL of complete medium. Afterward, 395 µL of the cell suspension was transferred to a FACS tube and 5 µL of PI and 0.5 µL of ethylenediamine tetraacetic acid (EDTA, 0.123 M) were added. A minimum of 20,000 events was acquired using a BD Accuri C6 (San Jose, CA, USA) flow cytometer in the channels forward scatter (FSC), side scatter (SSC) and fluorescence channel-3 (FL3, for PI). Acquisition and analysis were performed with BD Accuri Software. […]

The subject of data set [7] is LNCaP cells. The experiment in a line: Cell cycle distribution of LNCaP cells by flow cytometry. The following applies: 50 µM, 24 h. Type of data set: cell-based. As for the experimental part:
After 24 h of treatment with compound 11 at 50 µM (6-well plates, 5 × 10^4 cells/mL), LNCaP cells were collected and washed with PBS and resuspended in 450 µL of a cold solution of 0.5% bovine serum albumin (BSA; Amresco, Solon, OH, USA) and 1 mM EDTA in PBS, followed by fixation with 70% EtOH and kept at −20 °C. Afterward, fixed cells were washed twice with PBS and resuspended in a solution of PI (50 µg/mL) prepared in 0.5% BSA and 1 mM EDTA in PBS and then incubated with Ribonuclease A from bovine pancreas at a final concentration of 0.5 µg/µL (solution in 50% glycerol, 10 mM Tris-HCl, pH 8; Sigma Aldrich, St Louis, MO, USA) for 15 min in the dark. For comparison, untreated cells were used as negative control and cells treated with 5-FU at 50 µM were used as positive control. Each experiment was performed in duplicate and independently repeated. A minimum of 10,000 events was acquired using BD Accuri Software and analysis was performed by Modfit software (Becton Dickinson, San Jose, CA, USA).
For orientation: Flow cytometry measures light scatter and fluorescence of single cells or particles in a stream.

Data set [8] deals with LNCaP cells. The experiment in a line: Fluorescence microscopy of LNCaP cells after Hoechst 33258 DNA staining. The following applies: 50 µM, 24 h. In kind it is cell-based. As for the experimental part: Near-confluent LNCaP cells were seeded in a 6-well plate (5 × 10^4 cells/mL). After adherence and incubation for 24h with compound 11 (50 µM), the dye Hoechst 33,258 was added to the culture medium to achieve a final concentration of 1µg/mL. The cells were incubated for 15 min at 37 °C and were then photographed by means of a Nikon Eclipse microscope equipped with a fluorescence attachment containing the appropriate optical blocks and a QCapture CCD camera.

With `C[C@]12CC[C@@H]3c4ccc(O)cc4CC[C@H]3[C@@H]1CCC2=NO` [Compound 2, 17-hydroxyiminoestra-1,3,5(10)-trien-3-ol], in the data set with MCF-7 cells, the IC50 (in general, the point on the concentration scale where inhibition reaches its midpoint) is 26.7 µM and the “Selectivity index, MCF-7” value amounted to 1.65. Further, in the data set with T47-D cells, the concentration for half-maximal inhibition (IC50) was 29.3 µM and the “Selectivity index, T47-D” value was found to be 1.50. In the data set on HepaRG cells, the IC50 was 16.9 µM and the “Selectivity index, HepaRG” value is reported as 2.59. Besides, the IC50 in [1] is 43.9 µM.

`CC12CCC3c4ccc(O)cc4CCC3C1CC(=NO)C2=O` (stereo not drawn) [Compound 16-oxime]: the “% inhibition of 17β-HSD1” value with 17β-HSD1 was 96%.

With `C[C@]12CC[C@@H]3c4cc(I)c(O)c(I)c4CC[C@H]3[C@@H]1CCC2=NO` [Compound 10, 17-hydroxyimino-2,4-diiodooestra-1,3,5(10)-trien-3-ol], in the data set with HepaRG cells, the concentration for half-maximal inhibition (IC50) is 28 µM.

As to `C[C@]12CCC3c4cc(Br)c(O)c(Br)c4CCC3C1CCC2=NO` (stereo partly drawn) [Compound 12, 17-hydroxyimino-2,4-dibromo-3-hydroxyestra-1,3,5(10)-trien-3-ol], the IC50 in the data set on HepaRG cells was 21.9 µM.

For `C[C@]12CC=C3c4ccc(O)cc4CCC3C1CCC2=O` (stereo partly drawn) [Compound 8, Δ^9,11-E1], the “Proliferative/estrogenic effect on T47-D cells” value (“Proliferative/estrogenic effect” for short) in data set [2] is “stimulated the proliferation of T47-D cells”. The “Effect on cell cycle” value in the data set on HepaRG cell cycle is reported as “induced an arrest at G0/G1”.

In the case of `C[C@]12CC[C@@H]3c4cc([N+](=O)[O-])c(O)c([N+](=O)[O-])c4CC[C@H]3[C@@H]1CCC2=NO` [Compound 6, 17-hydroxyimino-2,4-dinitroestra-1,3,5(10)-trien-3-ol], in data set [3], the “Cytotoxic/antiproliferative effect in screening” value is “low antiproliferative activity”.

On to `C[C@]12CC[C@@H]3c4cc([N+](=O)[O-])c(O)cc4CC[C@H]3[C@@H]1CCC2=NO` [Compound 5, 17-hydroxyimino-2-nitroestra-1,3,5(10)-trien-3-ol], for which the IC50 with MCF-7 cells is 16.8 µM; in the data set with HepaRG cells, 12.3 µM; in the data set on Caco-2 cells, 18.5 µM.

In the case of `C[C@]12CC[C@@H]3c4ccc(OS(N)(=O)=O)cc4CC[C@H]3[C@@H]1CCC2=O` [EMATE, estrone sulfamate], in the data set on uterine growth, the “Stimulatory effect on the uterine growth” value is reported as 0.11 g.

On to `C[C@]12CC[C@@H]3c4ccc(O)cc4CC[C@H]3[C@@H]1CC[C@@H]2O` [Compound E2, 17β-estradiol, reference compound], for which the “Proliferative/estrogenic effect” value in data set [4] is given as “stimulated the cell proliferation”.

On to `C[C@]12CCC3c4ccc(OS(N)(=O)=O)cc4CCC3C1CC/C2=N\O` (stereo partly drawn) [OMATE, estrone oxime sulfamate], for which the “Stimulatory effect on the uterine growth” value with uterine growth was 0.15 g.

As to `C[C@]12CC=C3c4ccc(O)cc4CCC3C1CCC2=NO` (stereo partly drawn) [Compound 11, 17-hydroxyimino-3-hydroxyestra-1,3,5(10),9(11)-tetraen-3-ol], the IC50 in the data set with MCF-7 cells is 25.6 µM; in the data set on T47-D cells, 43.5 µM; with LNCaP cells [5] (72 h), 3.59 µM; in the data set on HepaRG cells, 18.4 µM; with Caco-2 cells, 24.3 µM; in data set [1] it was 30.8 µM. In addition, in the data set with MCF-7 cells, the “Selectivity index, MCF-7” value worked out at 1.20. Further, in the data set with T47-D cells, the “Selectivity index, T47-D” value came to 0.71. Also, the “Reduction of cell proliferation in screening” value in the data set on LNCaP cells [5] (LNCaP cells, 30 µM, 72 h, MTT) was “significant reduction of LNCaP cells proliferation”. For the same compound, in the data set with LNCaP cells [5], the “Selectivity index, LNCaP” value was 8.59. The “Selectivity index, HepaRG” value with HepaRG cells stood at 1.68. In the data set “in vitro”, the selectivity ratio at 72 h is 1.27. Further, the “Proliferative/estrogenic effect” value in data set [4] is “stimulated the cell proliferation”. In addition, the “Reduction in cell viability” value with LNCaP cells [6] stood at 11%. For the same compound, in the data set with LNCaP cells [7], the “Effect on cell cycle distribution” value is reported as “induced a G2/M cell cycle arrest”. Also, in the data set with LNCaP cells [8], the “Nuclei morphology (Hoechst 33,258)” value is “condensed DNA, typical of prophase, and a small proportion of condensed and fragmented nuclei, typical of apoptosis”.

`O=c1[nH]cc(F)c(=O)[nH]1` [Compound 5-FU, 5-fluorouracil, reference compound]: in the data set with MCF-7 cells, the “Selectivity index, MCF-7” value is on record as 2.11. The IC50 is 0.54 µM with T47-D cells; 7.79 µM in the data set with LNCaP cells [5] (72 h); 1.78 µM with HepaRG cells; 1.31 µM in the data set with Caco-2 cells; 3.61 µM in data set [1]. Moreover, the “Selectivity index, T47-D” value in the data set on T47-D cells is 6.69. In addition, in the data set with LNCaP cells [5], the “Selectivity index, LNCaP” value amounted to 0.46. In addition, the “Selectivity index, HepaRG” value with HepaRG cells is 2.03. Also, the selectivity ratio at 72 h in the data set “in vitro” came out at 2.76. For the same compound, the “Reduction in cell viability” value with LNCaP cells [6] stood at 12%. Besides, the “Effect on cell cycle distribution” value with LNCaP cells [7] was “not able to pass through to the S and G2/M phases”.

Turning to `C[C@]12CC[C@@H]3c4ccc(O)cc4CC[C@H]3[C@@H]1CCC2=O` [Compound 1, estrone, reference compound], the IC50 in the data set on MCF-7 cells was 41.9 µM; with HepaRG cells, 29.5 µM; in the data set on Caco-2 cells it was 42.7 µM; in data set [1], 61.8 µM.
